Source: BindingDB's records for doi:10.1021/acschembio.6b00560 (Vanderbilt Institute of Chemical Biology, Vanderbilt …, 2016)

Experiments:
[1] = molecular target: T1, Prostaglandin G/H synthase 2 (Mus musculus, UniProt Q05769); experiment: COX Enzyme Inhibition Assay (Table 1)
T1 sequence (Q05769 whole entry): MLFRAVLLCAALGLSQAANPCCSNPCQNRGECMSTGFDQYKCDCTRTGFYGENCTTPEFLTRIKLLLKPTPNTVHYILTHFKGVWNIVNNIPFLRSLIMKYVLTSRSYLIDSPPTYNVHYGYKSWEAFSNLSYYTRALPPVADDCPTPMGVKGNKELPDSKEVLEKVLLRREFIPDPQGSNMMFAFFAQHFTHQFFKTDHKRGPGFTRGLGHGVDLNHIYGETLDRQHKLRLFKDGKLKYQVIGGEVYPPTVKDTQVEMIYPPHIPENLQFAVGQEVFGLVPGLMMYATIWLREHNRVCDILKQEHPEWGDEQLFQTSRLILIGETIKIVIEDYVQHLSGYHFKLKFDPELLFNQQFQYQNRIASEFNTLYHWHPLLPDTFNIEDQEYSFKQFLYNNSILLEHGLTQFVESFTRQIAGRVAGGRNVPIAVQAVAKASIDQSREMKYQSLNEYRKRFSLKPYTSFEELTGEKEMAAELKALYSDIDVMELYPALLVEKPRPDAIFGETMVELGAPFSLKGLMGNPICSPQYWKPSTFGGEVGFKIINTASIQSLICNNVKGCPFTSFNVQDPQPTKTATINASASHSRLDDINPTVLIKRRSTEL

[2] = molecular target: T2, Prostaglandin G/H synthase 1 (Ovis aries, UniProt P05979); experiment: COX Enzyme Inhibition Assay (Table 1)
T2 sequence (P05979 whole entry): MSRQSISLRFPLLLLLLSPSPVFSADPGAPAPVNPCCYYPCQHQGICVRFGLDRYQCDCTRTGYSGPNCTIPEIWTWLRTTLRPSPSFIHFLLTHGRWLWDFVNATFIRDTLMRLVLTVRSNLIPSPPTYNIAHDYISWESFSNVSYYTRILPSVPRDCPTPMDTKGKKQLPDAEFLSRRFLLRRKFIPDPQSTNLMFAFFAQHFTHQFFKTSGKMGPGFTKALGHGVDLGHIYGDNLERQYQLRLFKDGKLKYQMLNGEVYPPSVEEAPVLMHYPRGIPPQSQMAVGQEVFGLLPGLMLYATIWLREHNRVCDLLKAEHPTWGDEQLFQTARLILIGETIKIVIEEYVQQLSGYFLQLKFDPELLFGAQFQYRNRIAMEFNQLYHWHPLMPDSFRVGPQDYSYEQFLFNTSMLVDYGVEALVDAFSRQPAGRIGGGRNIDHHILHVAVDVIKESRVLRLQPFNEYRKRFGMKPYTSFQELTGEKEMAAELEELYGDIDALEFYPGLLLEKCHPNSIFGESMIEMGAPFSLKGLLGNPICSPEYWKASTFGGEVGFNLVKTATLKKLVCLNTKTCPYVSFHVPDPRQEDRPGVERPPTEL

For `CCC1(O)C(=O)OCc2c1cc1n(c2=O)Cc2cc3cc(OC(=O)CCC(=O)OCCNC(=O)Cc4c(C)n(C(=O)c5ccc(Cl)cc5)c5ccc(OC)cc45)ccc3nc2-1` (stereo unspecified) [Cytotoxic conjugates, 10], which IC50 [1] is on record?
Its IC50 is greater than 25 µM.

And the IC50 [2]?
The IC50 was greater than 25 µM.

How did the IC50 [1] turn out when `COc1ccc2c(c1)c(CC(=O)NCCNC(=O)/C=C(C)/C=C/C=C(C)/C=C/C1=C(C)CCCC1(C)C)c(C)n2C(=O)c1ccc(Cl)cc1` [Cytotoxic conjugates, 6] was run?
The IC50 was 0.1 µM.

What about the IC50 [2] of the same compound?
Its IC50 is greater than 25 µM.

How did the IC50 [2] turn out when `COc1ccc2c(c1)c(CC(=O)NCc1ccc(CNC(=O)CCC(=O)O[C@@H]3c4cc5c(cc4[C@H](c4cc(OC)c(OC)c(OC)c4)[C@@H]4C(=O)OCC34)OCO5)cc1)c(C)n2C(=O)c1ccc(Cl)cc1` (stereo partly specified) [Cytotoxic conjugates, 15] was run?
Its IC50 is greater than 25 µM.

For `COc1ccc2c(c1)c(CC(=O)NCCOC(=O)\C=C(C)/C=C/C=C(C)/C=C/C1=C(C)CCCC1(C)C)c(C)n2C(=O)c1ccc(Cl)cc1` [Cytotoxic conjugates, 5], which IC50 [2] is on record?
Its IC50 is greater than 25 µM.

Which results are given for `COc1ccc2c(c1)c(CC(=O)NCCNC(=O)CCC(=O)O[C@@H]1c3cc4c(cc3[C@H](c3cc(OC)c(OC)c(OC)c3)[C@@H]3C(=O)OCC13)OCO4)c(C)n2C(=O)c1ccc(Cl)cc1` (stereo partly specified) [Cytotoxic conjugates, 11]?
IC50 [1]: 0.47 µM; IC50 [2]: > 25 µM

What does the source list for `COc1ccc2c(c1)c(CC(=O)O[C@@H](C(=O)O[C@H]1C[C@@]3(O)[C@@H](OC(=O)c4ccccc4)[C@@H]4[C@]5(OC(C)=O)CO[C@@H]5C[C@H](O)[C@@]4(C)C(=O)[C@H](OC(C)=O)C(=C1C)C3(C)C)[C@@H](NC(=O)c1ccccc1)c1ccccc1)c(C)n2C(=O)c1ccc(Cl)cc1` [Cytotoxic conjugates, 1]?
IC50 [1]: > 25 µM; IC50 [2]: > 25 µM

How did the IC50 [2] turn out when `COc1ccc2c(c1)c(CC(=O)NCCCCNC(=O)CCC(=O)OC1CCCCC1)c(C)n2C(=O)c1ccc(Cl)cc1` [Cytotoxic conjugates, 16] was run?
Its IC50 is greater than 25 µM.

Which IC50 [1] does the source give for `COc1cc([C@@H]2c3cc4c(cc3[C@H](O)[C@H]3COC(=O)[C@H]23)OCO4)cc(OC)c1OC` [podophyllotoxin] here?
Its IC50 is greater than 25 µM.

What about the IC50 [2] of the same compound?
The IC50 was greater than 25 µM.

With `COc1ccc2c(c1)c(CC(=O)NCCNC(=O)CCC(=O)Nc1ccc(S(=O)(=O)Nc3nccs3)cc1)c(C)n2C(=O)c1ccc(Cl)cc1` [Cytotoxic conjugates, 8] as the compound, how does the IC50 [2] read?
Its IC50 is greater than 25 µM.

Which IC50 [1] does the source give for `COc1ccc2c(c1)c(CCNC(=O)CCC(=O)Nc1ccc(S(=O)(=O)Nc3nccs3)cc1)c(C)n2Cc1ccc(Br)cc1` [Cytotoxic conjugates, 9] here?
Its IC50 is greater than 25 µM.

And the IC50 [2]?
Its IC50 is greater than 25 µM.

How did the IC50 [1] turn out when `COc1ccc2c(c1)c(CC(=O)NCCNC(=O)/C=C(C)/C=C/C=C(C)\C=C\C1=C(C)CCCC1(C)C)c(C)n2C(=O)c1ccc(Cl)cc1` [Cytotoxic conjugates, 7] was run?
The IC50 was 0.6 µM.

And the IC50 [2]?
The IC50 was greater than 25 µM.

Which IC50 [2] does the source give for `COc1ccc2c(c1)c(CC(=O)NCCCCOC(=O)CCC(=O)O[C@@H]1c3cc4c(cc3[C@H](c3cc(OC)c(OC)c(OC)c3)[C@@H]3C(=O)OCC13)OCO4)c(C)n2C(=O)c1ccc(Cl)cc1` (stereo partly specified) [Cytotoxic conjugates, 14] here?
The IC50 was greater than 25 µM.

`COc1ccc2c(c1)c(CC(=O)Nc1ccc(CNC(=O)CCC(=O)O[C@@H](C(=O)O[C@H]3C[C@@]4(O)[C@@H](OC(=O)c5ccccc5)[C@@H]5[C@]6(OC(C)=O)CO[C@@H]6C[C@H](O)[C@@]5(C)C(=O)[C@H](OC(C)=O)C(=C3C)C4(C)C)[C@@H](NC(=O)c3ccccc3)c3ccccc3)cc1)c(C)n2C(=O)c1ccc(Cl)cc1` [Cytotoxic conjugates, 4] was tested. Which IC50 [2] did it give?
Its IC50 is greater than 25 µM.

Which IC50 [2] does the source give for `COc1ccc2c(c1)c(CC(=O)NCCCCOC(=O)CCC(=O)O[C@@H](C(=O)O[C@H]1C[C@@]3(O)[C@@H](OC(=O)c4ccccc4)[C@@H]4[C@]5(OC(C)=O)CO[C@@H]5C[C@H](O)[C@@]4(C)C(=O)[C@H](OC(C)=O)C(=C1C)C3(C)C)[C@@H](NC(=O)c1ccccc1)c1ccccc1)c(C)n2C(=O)c1ccc(Cl)cc1` [Cytotoxic conjugates, 3] here?
The IC50 was greater than 25 µM.
